Measured values from patent US20090318492A1, “INDOLE COMPOUNDS HAVING C4-ACIDIC SUBSTITUENTS AND USE THEREOF AS PHOSPHOLIPASE-A2 INHIBITORS” (priority 2005, published 2009).

Columns and labels:
[1] = target: T1, mouse group 1B PLA2 (mps PLA2) (Mus musculus, UniProt Q9Z0Y2); assay: Example 8 fluorimetric PLA2 inhibition assay (PPyrPM), mouse enzyme; assay type: biochemical
T1 construct: made in house; host or cells: E. coli
Source text: In this example, a fluorimetric assay procedure was used to evaluate the indole and indole-related compounds of the invention as inhibitors of group 1B phospholipase A2 (PLA2) from human, mouse and porcine. A description of this assay is found in articles: Leslie, C C and Gelb, M H (2004) Methods in Molecular Biology “Assaying phospholipase A2 activity”, 284:229-242; Singer, A G, et al. (2002) Journal of Biological Chemistry “Interfacial kinetic and binding properties of the complete set of human and mouse groups I, II, V, X, and XII secreted phospholipases A2”, 277:48535-48549, which are incorporated herein as references.
In general, this assay used a phosphatidylmethanol substrate with a pyrene fluorophore on the terminal end of the sn-2 fatty acyl chain. Without being bound by theory, close proximity of the pyrenes from neighboring phospholipids in a phospholipid vesicle caused the spectral properties to change relative to that of monomeric pyrene. Bovine serum albumin was present in the aqueous phase and captured the pyrene fatty acid when it is liberated from the glycerol backbone owing to the PLA2-catalyzed reaction. However, a potent inhibitor can inhibit the liberation of pyrene fatty acid from the glycerol backbone. […] The effect of a given inhibitor and inhibitor concentration on human, mouse and porcine phospholipase was determined.
Recombinant human and mouse group 1B PLA2 were cloned and expressed in E. coli as insoluble inclusion bodies. The inclusion bodies were isolated and purified by sonicating cell pellet in lysis buffer (50 mM Tris-HCl pH 7.0, 250 mM NaCl, 0.5% Triton 100), centrifugation at 12,000×g, and washing three times in washing buffer (20 mM Tris-HCl pH 7.0, 250 mM NaCl, 0.5% Triton 100). […]
The following procedure was performed to evaluate the inhibitory potency of the evaluated compounds. • 1. […]

[2] = Example 9 mouse pharmacokinetic study; assay type: in vivo; conditions: serum, PO 30 mg/kg vs IV 3 mg/kg, male CD-1 mice
Experimental: The plasma exposure of male CD-1 mice to indole and indole-related test articles (TAs) following intravenous (IV, 3 mg/kg) and oral (PO, 30 mg/kg) routes of administration was measured. This model was used to investigate the bioavailability of indole and indole-related TAs in mouse. Mice were selected for the study since they are an accepted species frequently used in pre-clinical evaluation of drugs intended for human use.
Male CD-1 mice (7-8 weeks old) were obtained from Charles River Laboratories (Wilmington, Mass.). Two groups (N=18 and 27) of male CD-1 mice were used for the study. Upon arrival, the animals were placed on Rodent Diet 5001 (Purina Mills, Inc., St. Louis, Mo.). […]
All animals were weighed on study day (1) and the body weights were recorded and used for dose calculation. […] Clinical observations were recorded as needed.
Analysis of serum samples was performed by LC/MS/MS (Waters Quattro Premier, Milford, Mass.). Areas under curves (AUC) were calculated using Graphpad Prism Version 4. Bioavailability was calculated using the following equation: […]
where AUC0-t=total area under curve at the last measurable time point Based on the serum levels analyzed by LC/MS/MS, the calculated bioavailability of indole and indole-related TAs in CD-1 mice is summarized in Table 4.3.

T1 sequence (Q9Z0Y2 23-146): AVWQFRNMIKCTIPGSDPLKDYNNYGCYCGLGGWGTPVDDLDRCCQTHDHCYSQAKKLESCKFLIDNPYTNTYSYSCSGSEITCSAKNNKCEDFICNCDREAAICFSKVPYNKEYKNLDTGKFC

## Cc1c(C(=O)C(N)=O)c2c(OCC(=O)NS(=O)(=O)CCCC(=O)O)cccc2n1Cc1ccccc1 [ILY-IV-40, 4-[2-(3-Aminooxalyl-1-benzyl-2-methyl-1H-indol-4-yloxy)-acetylsulfamoyl]-butyric acid]
[1]
  IC50: 1360 nM
[2]
  bioavailability: 0.5%
